From article PMC10893103, “Cyclodextrin-Enabled Enantioselective Complexation Study of Cathinone Analogs” (Molecules, 2024)

experiment: Affinity capillary electrophoresis (ACE), pH 7.4; conditions: 30 mM phosphate buffer pH 7.4, 25 °C, 15 kV
Description: To assess the CD complex formation capability of the five cathinone derivatives, we devised a screening ACE method tailored to closely mimic physiological conditions. In a preliminary study, the ACE conditions were optimized regarding the type, pH, and concentration of the background electrolyte, the applied voltage, and the injection parameters. […] In order to avoid high Joule heat generation, sufficiently low voltage should be used; thus, after registering the Ohm plot (I-U plot), it was set to 15 kV. Throughout our ACE measurements, corrections for viscosity and ionic strength were systematically implemented to ensure precise determination of complex stability constants.
The CE experiments were performed on a HP ^3DCE and on an Agilent 7100 instrument (Agilent Technologies, Waldbronn, Germany) equipped with a photodiode array detector and the Chemstation software for data handling. Untreated fused silica capillaries (50 µm id, 48.5 cm total, 40 cm effective length) were purchased from Agilent. Conditioning of new capillary was conducted by flushing with 1 M NaOH followed by 0.1 M NaOH and water for 30 min each. Prior to all runs, the capillary was preconditioned by rinsing with BGE (2 min). The temperature of the capillary was set to 25 °C. UV detection was performed at 215 nm, and 15–25 kV voltage was applied. Samples were injected hydrodynamically (150 mbar·sec, optimized in the 50–500 mbar·sec range). The CE-pH measurements were carried out applying 25 kV voltage and 200 mbar·sec injection.
The background electrolyte of the CE-pH measurements contained 25 mM Na2HPO4 and 25 mM Na2B4O7, and the appropriate pH was adjusted with hydrochloric acid. During the ACE measurements, 30 mM phosphate buffer pH 7.4 (30 mM Na2HPO4—NaOH) was used. The running buffer was 20 mM acetic acid adjusting with 1 M Tris the pH to 4.5 during the chiral screening experiments. The BGEs contained CDs at various concentrations (0.25–20 mM) in the ACE experiments and 1-5-10 mM in the chiral method optimization experiments.
Stock solutions of each cathinone analog (mephedrone, flephedrone, 4-MEC, butylone, and MDPV) were prepared separately in methanol (1 mg/ml), and appropriate dilutions with water were used to prepare sample solutions for the CE-pH titration and for the ACE studies applying DMSO as EOF marker, while their mixture was used during the chiral separation studies.
The simplest way to determine the mobility is from the migration times (tmax) read from the electropherograms from which the apparent mobility could be calculated, but more accurate mobility values could be obtained by the determination with the Haarhoff–van der Linde (HVL) function based on Equation (2). (2) HVLδ(t;a0,a1,a2,a3δ)=a0/a2a3δ2πexp[−1/2(t−a1/a2)^2]/1/exp(a3δ)−1+1/2[1+erf(t−a1/2a2)] where a0 is the area of the HVL function, a1 is the position of the Gaussian component, a2 is the standard deviation of the Gaussian component, and a3δ is the peak shape distortion. The application of the HVL function is necessary in the case of accurate ACE measurements because, in several cases, the peaks are distorted due to the complex formation, which makes reading the migration times and calculating the mobility more difficult and imprecise.
The most popular technique for quantifying the analyte–ligand interaction with CE is mobility shift ACE.

Substance | 4-MEC–CD complex stability constant, Kstab2 (second migrating enantiomer) | 4-MEC–CD complex stability constant, Kstab/Kstab1 (unresolved or first migrating enantiomer) | Flephedrone–CD complex stability constant, Kstab2 (second migrating enantiomer) | Flephedrone–CD complex stability constant, Kstab/Kstab1 (unresolved or first migrating enantiomer) | Mephedrone–CD complex stability constant, Kstab2 (second migrating enantiomer) | Mephedrone–CD complex stability constant, Kstab/Kstab1 (unresolved or first migrating enantiomer) | Butylone–CD complex stability constant, Kstab2 (second migrating enantiomer) | Butylone–CD complex stability constant, Kstab/Kstab1 (unresolved or first migrating enantiomer) | MDPV–CD complex stability constant, Kstab2 (second migrating enantiomer) | MDPV–CD complex stability constant, Kstab/Kstab1 (unresolved or first migrating enantiomer)
carboxymethylated-β-CD [CM-β-CD] | 725 ± 45 M⁻¹ | 620 ± 40 M⁻¹ | 225 ± 10 M⁻¹ | 190 ± 10 M⁻¹ | 615 ± 25 M⁻¹ | 610 ± 30 M⁻¹ | – | – | – | –
carboxymethylated-γ-CD [CM-γ-CD] | 70 ± 10 M⁻¹ | 65 ± 8 M⁻¹ | 30 ± 5 M⁻¹ | 50 ± 9 M⁻¹ | 60 ± 10 M⁻¹ | 50 ± 8 M⁻¹ | 170 ± 10 M⁻¹ | 140 ± 10 M⁻¹ | 170 ± 17 M⁻¹ | 160 ± 15 M⁻¹
dimethylated-β-CD [DIME-β-CD] | 270 ± 25 M⁻¹ | 210 ± 20 M⁻¹ | – | 60 ± 6 M⁻¹ | – | 150 ± 15 M⁻¹ | – | – | – | –
hydroxypropylated-β-CD [HP-β-CD] | – | 80 ± 5 M⁻¹ | – | 15 ± 3 M⁻¹ | – | 60 ± 4 M⁻¹ | – | 170 ± 10 M⁻¹ | – | 255 ± 10 M⁻¹
hydroxypropylated-γ-CD [HP-γ-CD] | – | 40 ± 4 M⁻¹ | – | 220 ± 35 M⁻¹ | – | 25 ± 3 M⁻¹ | – | 40 ± 5 M⁻¹ | – | 50 ± 10 M⁻¹
phosphated-β-CD [Phos-β-CD] | – | – | 440 ± 35 M⁻¹ | 330 ± 20 M⁻¹ | – | – | – | – | – | 870 ± 60 M⁻¹
randomly methylated-β-CD [RAME-β-CD] | – | 140 ± 7 M⁻¹ | – | 40 ± 5 M⁻¹ | – | 100 ± 5 M⁻¹ | 350 ± 15 M⁻¹ | 325 ± 15 M⁻¹ | – | 585 ± 35 M⁻¹
succinyl-β-CD [Succ-β-CD (DS~4)] | – | – | – | – | – | – | 30,500 ± 5300 M^−1 | 13,500 ± 1350 M^−1 | 10,600 ± 35 M^−1 | 12,100 ± 2150 M^−1
sulfated-β-CD [S-β-CD] | – | – | – | 860 ± 100 M⁻¹ | – | – | – | – | – | –
sulfated-γ-CD [S-γ-CD] | – | 290 ± 30 M⁻¹ | – | – | – | 160 ± 15 M⁻¹ | – | 960 ± 95 M⁻¹ | – | 250 ± 55 M⁻¹
sulfo(2-hydroxy)propylated-β-CD [SHP-β-CD] | 300 ± 25 M⁻¹ | 250 ± 20 M⁻¹ | – | 60 ± 10 M⁻¹ | 300 ± 20 M⁻¹ | 230 ± 20 M⁻¹ | – | 620 ± 35 M⁻¹ | 910 ± 55 M⁻¹ | 800 ± 65 M⁻¹
sulfo(2-hydroxy)propylated-γ-CD [SHP-γ-CD] | 25 ± 5 M⁻¹ | 30 ± 7 M⁻¹ | – | 45 ± 80 M⁻¹ | < 10 M⁻¹ | 15 ± 5 M⁻¹ | 70 ± 7 M⁻¹ | 30 ± 5 M⁻¹ | – | –
sulfobutyl-ether-α-CD [SBE-α-CD] | 610 ± 55 M⁻¹ | 450 ± 45 M⁻¹ | – | – | 565 ± 80 M⁻¹ | 430 ± 70 M⁻¹ | 530 ± 100 M⁻¹ | 220 ± 20 M⁻¹ | 550 ± 90 M⁻¹ | 580 ± 80 M⁻¹
sulfobutyl-ether-β-CD [SBE-β-CD (DS~4)] | 550 ± 40 M⁻¹ | 560 ± 60 M⁻¹ | – | 175 ± 25 M⁻¹ | 325 ± 60 M⁻¹ | 300 ± 60 M⁻¹ | – | – | – | –
sulfobutyl-ether-β-CD [SBE-β-CD (DS~6.5)] | 660 ± 35 M⁻¹ | 560 ± 35 M⁻¹ | 200 ± 12 M⁻¹ | 200 ± 20 M⁻¹ | 500 ± 40 M⁻¹ | 500 ± 20 M⁻¹ | – | – | – | –
sulfobutyl-ether-γ-CD [SBE-γ-CD] | – | < 10 M⁻¹ | – | 100 ± 5 M⁻¹ | 65 ± 12 M⁻¹ | 70 ± 15 M⁻¹ | 100 ± 15 M⁻¹ | 95 ± 15 M⁻¹ | – | 160 ± 20 M⁻¹
sulfopropylated-β-CD [SP-β-CD (DS~2)] | – | 440 ± 25 M⁻¹ | – | 140 ± 12 M⁻¹ | – | 390 ± 20 M⁻¹ | – | 710 ± 45 M⁻¹ | – | –
sulfopropylated-β-CD [SP-β-CD (DS~4)] | – | 620 ± 65 M⁻¹ | – | 120 ± 12 M⁻¹ | 450 ± 65 M⁻¹ | 500 ± 65 M⁻¹ | – | – | – | –
sulfopropylated-γ-CD [SP-γ-CD] | – | 70 ± 10 M⁻¹ | – | < 10 M⁻¹ | – | 45 ± 4 M⁻¹ | – | 70 ± 10 M⁻¹ | – | 140 ± 20 M⁻¹
